The results in this text go back to patent publication US20170231177A1, “REGENERATION AND TRANSFORMATION OF COSMOS BIPINNATUS PLANTLETS” (Novin Giti Gene R&D Center (N.G.G), priority 2015, published 2017).

The subject of experiment [1] is cotyledon explants of Cosmos Bipinnatus. Put plainly: Shoot number of regenerated cotyledon explants on regeneration media. The experiment is classed as cell-based. The protocol: (§1) In this example, direct regeneration of Cosmos Bipinnatus plantlets was carried out with the following steps according to one or more aspects of the present disclosure. First, Cosmos Bipinnatus seeds were sterilized. The sterilization of Cosmos Bipinnatus seeds was carried out by soaking the seeds in an ethanol solution with a concentration of about 70% volume/volume for about 1 min followed by soaking the seeds in a hypochlorite sodium solution with a concentration of about 2% weight/volume for about 10 min, and then the seeds were rinsed three times with sterile distilled water.
(§2) The sterilized Cosmos Bipinnatus seeds were then germinated in order to obtain cotyledons of Cosmos Bipinnatus plant. Seed germination was carried out by putting the sterilized Cosmos Bipinnatus seeds under a sterile condition in an agar-solidified MS medium. Then, the sterilized Cosmos Bipinnatus seeds in the agar-solidified MS medium were incubated in a growth chamber with photoperiods of 16 hours in light and 8 hours in dark under fluorescent illuminations (60 μmol m^2 s^1) at 22° C.±1° C. for a period of 3 days. The cotyledons of Cosmos Bipinnatus plant that grew from germinated seeds after 3 days were cut and used as explants in the following steps of the direct regeneration process.
(§3) The obtained explants were then cultured onto a regeneration medium for regenerating cotyledon explants of Cosmos Bipinnatus. To this end, 10 explants, with their adaxial side down, were cultured onto the regeneration medium in a Petri dish for regeneration in cotyledons to occur. The regeneration in cotyledons was assessed by examining shoot-inducing ability in the presence of different regeneration medium compositions. The different regeneration medium compositions included respectively different concentrations of plant growth regulators and ethylene inhibitors. The regeneration media contained benzyl adenine (BA), silver nitrate, and adenine sulfate with different concentrations. An MS medium supplemented with 3% sucrose was used as a basal medium and the pH was adjusted to about 5.8 using a 1 N solution of NaOH.
As used herein, “shoot number” is the average number of shoots that are generated on the 10 explants used in the experiments for three replications.

The test system is the same in experiment [2]. Put plainly: Regeneration frequency of cotyledon explants on regeneration media. The experiment is classed as cell-based. The protocol:
as §1, §2
as §3, with “An MS medium supplemented with 3% sucrose was used as a basal medium and the pH was adjusted to about 5.8 using a 1 N solution of NaOH.” left out

The mark [3] stands for this setting: BA 2.5, AgNO3 0, adenine sulfate 0 mg/l in MS medium.
Where [4] appears, read: BA 5, AgNO3 0, adenine sulfate 0 mg/l in MS medium.
The mark [5] stands for this setting: BA 7.5, AgNO3 0, adenine sulfate 0 mg/l in MS medium.

In the case of `Nc1ncnc2nc[nH]c12.O=S(=O)(O)O` [Adenine sulfate, adenine sulfate], the Shoot number in experiment [1] (BA 0, AgNO3 0, adenine sulfate 10 mg/l in MS medium) is on record as 0.00 ± 0.00; in experiment [1] (BA 0, AgNO3 0, adenine sulfate 20 mg/l in MS medium) it was 0.00 ± 0.00; in experiment [1] (BA 0, AgNO3 0, adenine sulfate 40 mg/l in MS medium), 0.00 ± 0.00; in experiment [1] (BA 0, AgNO3 0, adenine sulfate 80 mg/l in MS medium) it was 0.00 ± 0.00.

Consider `O=[N+]([O-])[O-].[Ag+]` [AgNO3, silver nitrate], for which the Shoot number in experiment [1] (BA 0, AgNO3 2.5, adenine sulfate 0 mg/l in MS medium) turned out to be 0.00 ± 0.00; in experiment [1] (BA 0, AgNO3 5, adenine sulfate 0 mg/l in MS medium), 0.00 ± 0.00; in experiment [1] (BA 0, AgNO3 7.5, adenine sulfate 0 mg/l in MS medium), 0.00 ± 0.00.

Regarding `c1ccc(CNc2ncnc3nc[nH]c23)cc1` [BA, benzyladenine], the Regeneration frequency was 6.25 ± 0.00% in experiment [2] (setting [3]), 6.25 ± 1.70% in experiment [2] (setting [4]) and 5.25 ± 2.06% in experiment [2] (setting [5]). Also, the Shoot number was determined as 1.34 ± 0.33 in experiment [1] (setting [3]), 0.34 ± 0.28 in experiment [1] (setting [4]) and 0.67 ± 0.33 in experiment [1] (setting [5]).
